Test results from US9302999B2, “Substituted triazoles as herbicides” (E. I. DU PONT DE NEMOURS AND COMPANY, priority 2012, dated 2016).

Legend:
Type in all cases: in vivo
[1] = system: crabgrass, large (large crabgrass, Digitaria sanguinalis); test: Test A pre-/postemergence: crabgrass, large
How it was run: (§1)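 Compounds, formulated with surfactant in non-phytotoxic solvent, were applied as a directed soil spray preemergence and as postemergence sprays to 2–10 cm, one- to two-leaf seedlings grown in loam soil blended with sand; visual injury, 0–100, assessed ~10 days post-treatment against untreated controls.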

corn (Zea mays) = test: Test A pre-/postemergence: corn
How it was run: as §1

[2] = system: barnyardgrass (Echinochloa crus-galli); test: Test C flooded paddy test: barnyardgrass; details: scale 0 to 100 (0 no effect, 100 complete control)
How it was run: (§2)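 Plants were grown to the 2-leaf stage, pots flooded to 3 cm above soil, and test compounds applied directly to the paddy water, with that depth held throughout. After 13 to 15 days in a greenhouse, injury was visually rated against controls on a 0 (no effect) to 100 (complete control) scale.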

[3] = system: sedge, umbrella (small-flower umbrella sedge, Cyperus difformis); test: Test C flooded paddy test: sedge, umbrella; details: scale 0 to 100 (0 no effect, 100 complete control)
How it was run: as §2

[4] = system: velvetleaf (Abutilon theophrasti); test: Test A pre-/postemergence: velvetleaf
How it was run: as §1

[5] = system: ducksalad (Heteranthera limosa); test: Test C flooded paddy test: ducksalad; details: scale 0 to 100 (0 no effect, 100 complete control)
How it was run: as §2

[6] = system: wheat (Triticum aestivum); test: Test A pre-/postemergence: wheat
How it was run: as §1

[7] = system: pigweed (Amaranthus retroflexus); test: Test A pre-/postemergence: pigweed
How it was run: as §1

[8] = system: morningglory (Ipomoea spp.); test: Test A pre-/postemergence: morningglory
How it was run: as §1

[9] = system: foxtail, giant (giant foxtail, Setaria faberii); test: Test A pre-/postemergence: foxtail, giant
How it was run: as §1

rice (Oryza sativa) = test: Test C flooded paddy test: rice; details: scale 0 to 100 (0 no effect, 100 complete control)
How it was run: as §2

[10] = system: barnyardgrass (Echinochloa crus-galli); test: Test A pre-/postemergence: barnyardgrass
How it was run: as §1

[11] = Postemergence, 125 g ai/ha, 0 to 100 scale, 0 is no effect, 100 is complete control
[12] = Postemergence, 500 g ai/ha, visual rating on 0 to 100 scale (0 no effect, 100 complete control), approximately ten days
[13] = Preemergence, 125 g ai/ha, 0 to 100 scale (0 no effect, 100 complete control)
[14] = Preemergence, 500 g ai/ha, 0 to 100 scale, 0 is no effect, 100 is complete control
[15] = Flood (flooded paddy test), 62 g ai/ha, visual rating after 13 to 15 days
[16] = Flood (flooded paddy test), 125 g ai/ha, visual rating after 13 to 15 days
[17] = Flood (flooded paddy test), 250 g ai/ha, visual rating after 13 to 15 days
[18] = Preemergence, 125 g ai/ha, 0 to 100 scale where 0 is no effect and 100 is complete control
[19] = Postemergence, 1000 g ai/ha, visual rating on 0 to 100 scale (0 no effect, 100 complete control), approximately ten days
[20] = Preemergence, 1000 g ai/ha, 0 to 100 scale, 0 is no effect, 100 is complete control

COc1cc(Cc2nn(-c3ccc(C(F)(F)F)cc3)nc2C)ccn1 [Compound 31]
Crabgrass, Large plant response rating [1, 11]: 10
Crabgrass, Large plant response rating [1, 12]: 50
Plant response rating, Crabgrass, Large [1, 13]: 0
Plant response rating, Crabgrass, Large [1, 14]: 60
Corn plant response rating (corn (Zea mays); [11]): 10
Corn plant response rating (corn (Zea mays); [12]): 20
Plant response rating, Corn (corn (Zea mays); [13]): 0
Plant response rating, Corn (corn (Zea mays); [14]): 0
Plant response rating, Barnyardgrass [2, 15]: 0
Plant response rating, Barnyardgrass [2, 16]: 0
Plant response rating, Barnyardgrass [2, 17]: 0
Plant response rating, Barnyardgrass ([2]; Flood, 31 g ai/ha): 0
Plant response rating, Sedge, Umbrella [3, 15]: 0
Plant response rating, Sedge, Umbrella [3, 16]: 0
Plant response rating, Sedge, Umbrella [3, 17]: 0
Plant response rating, Sedge, Umbrella ([3]; Flood, 31 g ai/ha): 0
Velvetleaf plant response rating [4, 11]: 10
Velvetleaf plant response rating [4, 12]: 20
Plant response rating, Velvetleaf [4, 13]: 0
Plant response rating, Velvetleaf [4, 14]: 0
Plant response rating, Ducksalad [5, 15]: 0
Plant response rating, Ducksalad [5, 16]: 0
Plant response rating, Ducksalad [5, 17]: 0
Plant response rating, Ducksalad ([5]; Flood, 31 g ai/ha): 0
Wheat plant response rating [6, 11]: 0
Wheat plant response rating [6, 12]: 10
Plant response rating, Wheat [6, 13]: 0
Plant response rating, Wheat [6, 14]: 0
Pigweed plant response rating [7, 11]: 60
Pigweed plant response rating [7, 12]: 90
Plant response rating, Pigweed [7, 13]: 0
Plant response rating, Pigweed [7, 14]: 50
Morningglory plant response rating [8, 11]: 20
Morningglory plant response rating [8, 12]: 100
Plant response rating, Morningglory [8, 13]: 0
Plant response rating, Morningglory [8, 14]: 0
Foxtail, Giant plant response rating [9, 11]: 10
Foxtail, Giant plant response rating [9, 12]: 50
Plant response rating, Foxtail, Giant [9, 13]: 30
Plant response rating, Foxtail, Giant [9, 14]: 90
Plant response rating, Rice (rice (Oryza sativa); [15]): 0
Plant response rating, Rice (rice (Oryza sativa); [16]): 0
Plant response rating, Rice (rice (Oryza sativa); [17]): 0
Plant response rating, Rice (rice (Oryza sativa); Flood, 31 g ai/ha): 0
Barnyardgrass plant response rating [10, 11]: 10
Barnyardgrass plant response rating [10, 12]: 10
Plant response rating, Barnyardgrass [10, 13]: 0
Plant response rating, Barnyardgrass [10, 14]: 0

Cc1nn(-c2ccc(C(F)(F)F)cc2)nc1Oc1cccc(C(F)(F)F)c1 [Compound 111]
Crabgrass, Large plant response rating [1, 11]: 90
Crabgrass, Large plant response rating [1, 12]: 90
Plant response rating, Crabgrass, Large [1, 18]: 80
Plant response rating, Crabgrass, Large [1, 14]: 100
Corn plant response rating (corn (Zea mays); [11]): 20
Corn plant response rating (corn (Zea mays); [12]): 30
Plant response rating, Corn (corn (Zea mays); [18]): 0
Plant response rating, Corn (corn (Zea mays); [14]): 20
Plant response rating, Barnyardgrass [2, 16]: 20
Plant response rating, Barnyardgrass [2, 17]: 35
Plant response rating, Barnyardgrass ([2]; Flood, 31 g ai/ha): 0
Plant response rating, Barnyardgrass ([2]; Flood, 62 g ai/ha): 0
Plant response rating, Sedge, Umbrella [3, 16]: 80
Plant response rating, Sedge, Umbrella [3, 17]: 85
Plant response rating, Sedge, Umbrella ([3]; Flood, 31 g ai/ha): 45
Plant response rating, Sedge, Umbrella ([3]; Flood, 62 g ai/ha): 65
Velvetleaf plant response rating [4, 11]: 20
Velvetleaf plant response rating [4, 12]: 70
Plant response rating, Velvetleaf [4, 18]: 0
Plant response rating, Velvetleaf [4, 14]: 50
Plant response rating, Ducksalad [5, 16]: 70
Plant response rating, Ducksalad [5, 17]: 80
Plant response rating, Ducksalad ([5]; Flood, 31 g ai/ha): 0
Plant response rating, Ducksalad ([5]; Flood, 62 g ai/ha): 30
Wheat plant response rating [6, 11]: 10
Wheat plant response rating [6, 12]: 40
Plant response rating, Wheat [6, 18]: 0
Plant response rating, Wheat [6, 14]: 0
Pigweed plant response rating [7, 11]: 90
Pigweed plant response rating [7, 12]: 90
Plant response rating, Pigweed [7, 18]: 70
Plant response rating, Pigweed [7, 14]: 90
Morningglory plant response rating [8, 11]: 70
Morningglory plant response rating [8, 12]: 100
Plant response rating, Morningglory [8, 18]: 0
Plant response rating, Morningglory [8, 14]: 30
Foxtail, Giant plant response rating [9, 11]: 80
Foxtail, Giant plant response rating [9, 12]: 90
Plant response rating, Foxtail, Giant [9, 18]: 70
Plant response rating, Foxtail, Giant [9, 14]: 100
Plant response rating, Rice (rice (Oryza sativa); [16]): 25
Plant response rating, Rice (rice (Oryza sativa); [17]): 30
Plant response rating, Rice (rice (Oryza sativa); Flood, 31 g ai/ha): 0
Plant response rating, Rice (rice (Oryza sativa); Flood, 62 g ai/ha): 0
Barnyardgrass plant response rating [10, 11]: 20
Barnyardgrass plant response rating [10, 12]: 30
Plant response rating, Barnyardgrass [10, 18]: 20
Plant response rating, Barnyardgrass [10, 14]: 80

Cc1nn(-c2ccc(F)cc2)nc1Cn1cnc(C(F)(F)F)n1 [Compound 94]
Crabgrass, Large plant response rating [1, 19]: 80
Crabgrass, Large plant response rating [1, 20]: 100
Corn plant response rating (corn (Zea mays); [19]): 40
Corn plant response rating (corn (Zea mays); [20]): 0
Plant response rating, Barnyardgrass [2, 16]: 0
Plant response rating, Barnyardgrass [2, 17]: 0
Plant response rating, Barnyardgrass ([2]; Flood, 31 g ai/ha): 0
Plant response rating, Barnyardgrass ([2]; Flood, 62 g ai/ha): 0
Plant response rating, Sedge, Umbrella [3, 16]: 60
Plant response rating, Sedge, Umbrella [3, 17]: 75
Plant response rating, Sedge, Umbrella ([3]; Flood, 31 g ai/ha): 0
Plant response rating, Sedge, Umbrella ([3]; Flood, 62 g ai/ha): 50
Velvetleaf plant response rating [4, 19]: 80
Velvetleaf plant response rating [4, 20]: 20
Plant response rating, Ducksalad [5, 16]: 40
Plant response rating, Ducksalad [5, 17]: 60
Plant response rating, Ducksalad ([5]; Flood, 31 g ai/ha): 0
Plant response rating, Ducksalad ([5]; Flood, 62 g ai/ha): 0
Wheat plant response rating [6, 19]: 30
Wheat plant response rating [6, 20]: 0
Pigweed plant response rating [7, 19]: 100
Pigweed plant response rating [7, 20]: 100
Morningglory plant response rating [8, 19]: 100
Morningglory plant response rating [8, 20]: 60
Foxtail, Giant plant response rating [9, 19]: 70
Foxtail, Giant plant response rating [9, 20]: 100
Plant response rating, Rice (rice (Oryza sativa); [16]): 0
Plant response rating, Rice (rice (Oryza sativa); [17]): 0
Plant response rating, Rice (rice (Oryza sativa); Flood, 31 g ai/ha): 0
Plant response rating, Rice (rice (Oryza sativa); Flood, 62 g ai/ha): 0
Barnyardgrass plant response rating [10, 19]: 40
Barnyardgrass plant response rating [10, 20]: 70
